# Reference: patent publication US9428472B2, “Methods of treating bacterial infections with 1,2-benzisothiazolinone and isoindolinone derivatives” (GEORGETOWN UNIVERSITY, priority 2011, dated 2016)
# Read-outs that look alike come from different tables or passages of the source.
# How the values were obtained:
# Group A Streptococci = assay: Disc-diffusion method (disc inhibition testing); assay type: cell-based; settings: read-out: Zone diameter
# Description: (§1) An inoculum of the tested organism was made from an 18-24 h agar plate and was grown overnight to 0.5 McFarland standard. This suspension was then spread on a fresh Mueller-Hinton plate in the following manner: Optimally, within 15 minutes after adjusting the turbidity of the inoculum suspension, a sterile cotton swab was dipped the suspension. The swab was rotated several times and pressed firmly on the inside wall of the tube to remove excess inoculum. The dried surface of the Mueller-Hinton agar plate was then inoculated by streaking the swab over the entire sterile agar surface. Discs of sterile filter paper were inoculated with standard amounts of compounds (5, 10 and 25 microgram) and were dried before application on to the streaked plate. A control disc with the same DMSO % as the test discs were also applied to the plate. The plates were inverted after 15 minutes and were placed in an incubator set to 35° C. After 16-18 h, the plates were examined. The circular zones of inhibition were evaluated by measuring the diameter of the circular margin with no obvious visible growth. The inhibition diameters of standardized drugs against the tested organism were also determined simultaneously and are compared to those mentioned in CLSI M02-A10.
# [1] = tested on: Enterococcus fecalis 51299 (VRE); assay: Disc-diffusion method (disc inhibition testing); assay type: cell-based
# Description: as §1
# Micrococcus sp = assay: Disc-diffusion method (disc inhibition testing); assay type: cell-based; settings: read-out: Zone diameter
# Description: as §1
# [2] = tested on: Staphylococcus aureus 43300 (MRSA); assay: Disc-diffusion method (disc inhibition testing); assay type: cell-based
# Description: as §1
# [3] = tested on: Staphylococcus aureus 25923; assay: Disc-diffusion method (disc inhibition testing); assay type: cell-based; settings: read-out: Zone diameter
# Description: as §1
# [4] = tested on: Enterococcus fecalis 29212; assay: Disc-diffusion method (disc inhibition testing); assay type: cell-based; settings: read-out: Zone diameter
# Description: as §1
# [5] = tested on: Staphylococcus aureus 29213; assay: Disc-diffusion method (disc inhibition testing); assay type: cell-based; settings: read-out: Zone diameter
# Description: as §1
# [6] = tested on: Staphylocccus saprophyticus; assay: Disc-diffusion method (disc inhibition testing); assay type: cell-based; settings: read-out: Zone diameter
# Description: as §1
# [7] = tested on: Staphylococcus saprophyticus, Staphylococcus aureus, Micrococcus sp., Enterococcus fecalis and Group A Streptococcus; assay: Broth microdilution method, MIC-50 over the tested organisms; assay type: cell-based
# Description: (§2) The in vitro toxicity of these compounds was determined by the neutral red (both compounds I-1 and I-2) and MTT (3-(4,5-Dimethylthiazol-2-yl)-2,5-diphenyltetrazolium bromide) assay (compound I-1) in human hepatic cell lines Huh7 and HepG2.
# 96 well plates were used to determine the MIC-50 endpoints for most fastidious organisms. The tested compounds were diluted in RPMI to 50 microgram/ml and 0.1 ml was added to the first well. Two-fold dilutions were made in subsequent wells in RPMI to get a range of concentrations from 0.1-50 μg/ml. The volume of diluted compound in each well was 100 microliter. Bacteria were grown in Mueller-Hinton Broth from a single colony from a fresh plate of the tested organism. The broth was grown overnight to 0.5 McFarland standard (10^8 cells) and further diluted in RPMI to get a final inoculum concentration of 5×10^5 CFU/mL. 15 minutes after the inoculum had been standardized as described above, 5 μl of this suspension was inoculated to each well containing 0.1 ml of the tested compound. This plate was then kept at 35° C. for 16-20 h in an ambient air incubator. […] The concentration of inoculum suspension was confirmed by replating on to agar plates. […] The endpoints of standardized drugs are also determined simultaneously and were compared to those mentioned in CLSI M07-08.
# Huh7 = assay: In vitro toxicity, neutral red cell viability and MTT assays; assay type: cell-based, human
# Description: as §2
# (§3) The neutral red cell viability assay and the MTT assays were conducted with the active compounds at defined concentrations in human hepatoma cell lines, Huh7 and HepG2, as described by Repetto et al (Repetto G, Peso A. D. & Zurita J. L., Neutral red uptake assay for the estimation of cell viability/cytotoxicity, Nature Protocols 3, 1125-1131 (2008)) and Mosmann et al (Mosmann T., Rapid colorimetric assay for cellular growth and survival: application to proliferation and cytotoxicity assays, Journal of Immunological Methods 65 (1-2): 55-63, (December 1983)) respectively. The cell cytotoxicity (CC-50) concentrations were calculated for the HepG2 cell line.
# HepG2 = assay: as above; assay type: cell-based, human
# Description: as §2, §3
# [8] = tested on: Gram-positive bacterial organisms; assay: Screening for antibacterial compounds (disc diffusion method, CSLI M02-A10); assay type: cell-based
# Description: as §1
# E. Coli 25922 = assay: Disc-diffusion method (disc inhibition testing); assay type: cell-based; settings: Conc. 10/25/50 μg
# Description: as §1, with “Discs of sterile filter paper were inoculated with standard amounts of compounds (5, 10 and 25 microgram) and were dried before application on to the streaked plate.” left out
# Klebsiella pnemonia 1705 = assay: Disc-diffusion method (disc inhibition testing); assay type: cell-based; settings: Conc. 10/25/50 μg
# Description: as §1, with “Discs of sterile filter paper were inoculated with standard amounts of compounds (5, 10 and 25 microgram) and were dried before application on to the streaked plate.” left out
# Shigella sp = assay: Disc-diffusion method (disc inhibition testing); assay type: cell-based; settings: Conc. 10/25/50 μg
# Description: as §1, with “Discs of sterile filter paper were inoculated with standard amounts of compounds (5, 10 and 25 microgram) and were dried before application on to the streaked plate.” left out
# Aeromonas sp = assay: Disc-diffusion method (disc inhibition testing); assay type: cell-based; settings: Conc. 10/25/50 μg
# Description: as §1, with “Discs of sterile filter paper were inoculated with standard amounts of compounds (5, 10 and 25 microgram) and were dried before application on to the streaked plate.” left out
# Streptococcus pneumoniae = assay: Disc-diffusion method (disc inhibition testing); assay type: cell-based; settings: Conc. 10/25/50 μg
# Description: as §1, with “Discs of sterile filter paper were inoculated with standard amounts of compounds (5, 10 and 25 microgram) and were dried before application on to the streaked plate.” left out
# Pseudomonas aeroginosa = assay: Disc-diffusion method (disc inhibition testing); assay type: cell-based; settings: Conc. 10/25/50 μg
# Description: as §1, with “Discs of sterile filter paper were inoculated with standard amounts of compounds (5, 10 and 25 microgram) and were dried before application on to the streaked plate.” left out
# Klebsiella oxytoca = assay: Disc-diffusion method (disc inhibition testing); assay type: cell-based; settings: Conc. 10/25/50 μg
# Description: as §1, with “Discs of sterile filter paper were inoculated with standard amounts of compounds (5, 10 and 25 microgram) and were dried before application on to the streaked plate.” left out
# Proteus sp 35651 = assay: Disc-diffusion method (disc inhibition testing); assay type: cell-based; settings: Conc. 10/25/50 μg
# Description: as §1, with “Discs of sterile filter paper were inoculated with standard amounts of compounds (5, 10 and 25 microgram) and were dried before application on to the streaked plate.” left out
# [9] = neutral red (I-1, I-2) and MTT (I-1)
structure (smiles),measurement,setting,value
O=C(Cn1sc2ccccc2c1=O)Nc1ccccc1Oc1ccccc1 [Compound I-2],zone of inhibition at 10 µg/disc,Group A Streptococci; Conc. 10 μg,20 mm
same,zone of inhibition at 25 µg/disc,Group A Streptococci; Conc. 25 μg,24 mm
same,zone of inhibition at 50 µg/disc,Group A Streptococci; Conc. 50 μg,27 mm
same,zone of inhibition at 10 µg/disc,"[1]; Enterococcus, VRE, Conc. 10 μg, read-out: Zone diameter",17 mm
same,zone of inhibition at 25 µg/disc,"[1]; Enterococcus, VRE, Conc. 25 μg, read-out: Zone diameter",22 mm
same,zone of inhibition at 50 µg/disc,"[1]; Enterococcus, VRE, Conc. 50 μg, read-out: Zone diameter",24 mm
same,activity against Enterococcus fecalis ATCC 51299 (VRE),[1]; method not named,active
same,zone of inhibition at 10 µg/disc,Micrococcus sp; Conc. 10 μg,27 mm
same,zone of inhibition at 25 µg/disc,Micrococcus sp; Conc. 25 μg,28 mm
same,zone of inhibition at 50 µg/disc,Micrococcus sp; Conc. 50 μg,29 mm
same,zone of inhibition at 10 µg/disc,"[2]; Staphylococcus aureus, MRSA, Conc. 10 μg, read-out: Zone diameter",19 mm
same,zone of inhibition at 25 µg/disc,"[2]; Staphylococcus aureus, MRSA, Conc. 25 μg, read-out: Zone diameter",19 mm
same,zone of inhibition at 50 µg/disc,"[2]; Staphylococcus aureus, MRSA, Conc. 50 μg, read-out: Zone diameter",23 mm
same,activity against Staphylococcus aureus ATCC 43300 (MRSA),[2]; method not named,active
same,zone of inhibition at 10 µg/disc,[3]; Conc. 10 μg,18 mm
same,zone of inhibition at 25 µg/disc,[3]; Conc. 25 μg,21 mm
same,zone of inhibition at 50 µg/disc,[3]; Conc. 50 μg,23 mm
same,zone of inhibition at 10 µg/disc,[4]; Conc. 10 μg,14 mm
same,zone of inhibition at 25 µg/disc,[4]; Conc. 25 μg,16 mm
same,zone of inhibition at 50 µg/disc,[4]; Conc. 50 μg,18 mm
same,zone of inhibition at 10 µg/disc,[5]; Conc. 10 μg,16 mm
same,zone of inhibition at 25 µg/disc,[5]; Conc. 25 μg,18 mm
same,zone of inhibition at 50 µg/disc,[5]; Conc. 50 μg,22 mm
same,zone of inhibition at 10 µg/disc,[6]; Conc. 10 μg,22 mm
same,zone of inhibition at 25 µg/disc,[6]; Conc. 25 μg,24 mm
same,zone of inhibition at 50 µg/disc,[6]; Conc. 50 μg,25 mm
same,MIC50,"[7]; range over the five named organisms, read-out: MIC-50 concentrations",1 to 15 µg/mL
same,MIC50,"[7]; range over the tested gram positive pathogens, read-out: MIC-50 values",1 to 15 µg/mL
same,concentration up to which no toxicity was shown,Huh7,≥ 100 microgram/ml
same,in vitro toxicity,Huh7; [9],Minimal in vitro toxicity
same,concentration up to which no toxicity was shown,HepG2,≥ 100 microgram/ml
same,in vitro toxicity,HepG2; [9],Minimal in vitro toxicity
same,"activity against Staphylococcus saprophyticus, Staphylococcus aureus, Micrococcus sp., Enterococcus fecalis and Group A Streptococcus",[8],showed activity
same,antibiotic activity against Gram-positive bacterial organisms,[8]; disc diffusion screening,antibiotic activity
same,Zone diameter,E. Coli 25922,NOT ACTIVE
same,Zone diameter,Klebsiella pnemonia 1705,NOT ACTIVE
same,Zone diameter,Shigella sp,NOT ACTIVE
same,Zone diameter,Aeromonas sp,NOT ACTIVE
same,Zone diameter,Streptococcus pneumoniae,NOT ACTIVE
same,Zone diameter,Pseudomonas aeroginosa,NOT ACTIVE
same,Zone diameter,Klebsiella oxytoca,NOT ACTIVE
same,Zone diameter,Proteus sp 35651,NOT ACTIVE
